Experimental data published in PubChem BioAssay AID248 (DTP/NCI, 2004).
Inconclusive results and toxic doses are left out. No stated cut-off is given here; in the data, active means T/C of 150% or more; inactive means T/C below 125%.

Tested on: L1210 leukemia ip in BDF1 mice, survival T/C
Test: NCI In Vivo Anticancer Drug Screen. Data for tumor model L1210 Leukemia (intraperitoneal) in B6D2F1 (BDF1) mice
Conditions: endpoint: mean survival time, higher = longer survival
Procedure, shortened: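 Transplantable tumor model; survival measured in treated vs vehicle control mice. Value = treated/control.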

[1] = dose: 100.0 mg/kg/injection, schedule: Q01DX001 (ip), vehicle: saline
[2] = dose: 200.0 mg/kg/injection, schedule: Q01DX001 (ip), vehicle: saline
[3] = dose: 400.0 mg/kg/injection, schedule: Q01DX001 (ip), vehicle: saline
[4] = dose: 100.0 mg/kg/injection, schedule: Q01DX001 (ip), vehicle: carboxymethylcellulose (CMC)
[5] = dose: 200.0 mg/kg/injection, schedule: Q01DX001 (ip), vehicle: carboxymethylcellulose (CMC)
[6] = dose: 400.0 mg/kg/injection, schedule: Q01DX001 (ip), vehicle: carboxymethylcellulose (CMC)
[7] = dose: 50.0 mg/kg/injection, schedule: Q01DX009 (ip), vehicle: saline with Tween-80
[8] = dose: 100.0 mg/kg/injection, schedule: Q01DX009 (ip), vehicle: Klucel (hydroxypropylcellulose) (HPC)
[9] = dose: 100.0 mg/kg/injection, schedule: Q04DX003 (ip), vehicle: Klucel (hydroxypropylcellulose) (HPC)
[10] = dose: 200.0 mg/kg/injection, schedule: Q01DX009 (ip), vehicle: Klucel (hydroxypropylcellulose) (HPC)
[11] = dose: 200.0 mg/kg/injection, schedule: Q04DX003 (ip), vehicle: Klucel (hydroxypropylcellulose) (HPC)
[12] = dose: 400.0 mg/kg/injection, schedule: Q01DX009 (ip), vehicle: Klucel (hydroxypropylcellulose) (HPC)
[13] = dose: 400.0 mg/kg/injection, schedule: Q04DX003 (ip), vehicle: Klucel (hydroxypropylcellulose) (HPC)
[14] = dose: 100.0 mg/kg/injection, schedule: Q01DX001 (ip), vehicle: Klucel (hydroxypropylcellulose) (HPC)
[15] = dose: 200.0 mg/kg/injection, schedule: Q01DX001 (ip), vehicle: Klucel (hydroxypropylcellulose) (HPC)
[16] = dose: 100.0 mg/kg/injection, schedule: Q01DX009 (ip), vehicle: saline with Tween-80
[17] = dose: 200.0 mg/kg/injection, schedule: Q01DX009 (ip), vehicle: saline with Tween-80
[18] = dose: 100.0 mg/kg/injection, schedule: Q04DX002 (ip), vehicle: Klucel (hydroxypropylcellulose) (HPC)
[19] = dose: 200.0 mg/kg/injection, schedule: Q04DX002 (ip), vehicle: Klucel (hydroxypropylcellulose) (HPC)
[20] = dose: 400.0 mg/kg/injection, schedule: Q04DX002 (ip), vehicle: Klucel (hydroxypropylcellulose) (HPC)

Measured: T/C

N#CC(/C=C/c1ccccc1)Nc1ccccc1N (stereo not drawn)
inactive: dose: 100.0 mg/kg/injection, schedule: Q01DX001 (ip), vehicle: saline with Tween-80 91 % of control | dose: 200.0 mg/kg/injection, schedule: Q01DX001 (ip), vehicle: saline with Tween-80 94 % of control | dose: 400.0 mg/kg/injection, schedule: Q01DX001 (ip), vehicle: saline with Tween-80 86 % of control

C[N+]1(C)CCOCC1
inactive: dose: 10.0 mg/kg/injection, schedule: Q01DX001 (ip), vehicle: saline 99 % of control | dose: 20.0 mg/kg/injection, schedule: Q01DX001 (ip), vehicle: saline 100 % of control | dose: 40.0 mg/kg/injection, schedule: Q01DX001 (ip), vehicle: saline 96 % of control

CC(C)N1CC(C)(C)N=C1C(C#N)c1cnc2ccccc2n1 (stereo not drawn)
inactive: [1] 98 % of control | [2] 94 % of control | [3] 94 % of control

CN1C(=O)c2ccccc2NC(=O)C12OC2c1ccccc1 (stereo not drawn)
inactive: [1] 101 % of control | [2] 101 % of control | [3] 97 % of control

C/C(=C\C(=O)O)Cc1ccccc1 (tested in a mixture with another compound)
inactive: dose: 50.0 mg/kg/injection, schedule: Q04DX003 (ip), vehicle: other 106 % of control | dose: 100.0 mg/kg/injection, schedule: Q04DX003 (ip), vehicle: other 115 % of control | dose: 200.0 mg/kg/injection, schedule: Q04DX003 (ip), vehicle: other 114 % of control | dose: 400.0 mg/kg/injection, schedule: Q04DX003 (ip), vehicle: other 103 % of control

CC(NC(=O)OC(C)(C)C)C(=O)O (stereo not drawn)
inactive: [4] 104 % of control | [5] 104 % of control | [6] 104 % of control

OC(c1ccccc1)(c1ccccc1)c1ccncc1
inactive: [7] 96 % of control

CN(C)C(=S)[S][Sb]([S]C(=S)N(C)C)[c]1ccccc1
inactive: dose: 100.0 mg/kg/injection, schedule: Q01DX001 (ip), vehicle: steriod suspending solution 96 % of control | dose: 200.0 mg/kg/injection, schedule: Q01DX001 (ip), vehicle: steriod suspending solution 96 % of control

NC(N)=N/N=C\c1cccc(OCc2ccccc2)c1
inactive: dose: 15.0 mg/kg/injection, schedule: Q01DX Z (oral), vehicle: saline 94 % of control | dose: 30.0 mg/kg/injection, schedule: Q01DX Z (oral), vehicle: saline 89 % of control | dose: 60.0 mg/kg/injection, schedule: Q01DX Z (oral), vehicle: saline 93 % of control | dose: 120.0 mg/kg/injection, schedule: Q01DX Z (oral), vehicle: saline 94 % of control

Nc1c(Cl)cc(Cl)c2ccc([N+](=O)[O-])cc12
inactive: [8] 93 % of control | [9] 103 % of control | [10] 107 % of control | [11] 93 % of control | [12] 95 % of control | [13] 93 % of control

O=C1CCC(=O)N1c1ccccc1Cl
inactive: dose: 87.5 mg/kg/injection, schedule: Q01DX001 (ip), vehicle: Klucel (hydroxypropylcellulose) (HPC) 102 % of control | dose: 175.0 mg/kg/injection, schedule: Q01DX001 (ip), vehicle: Klucel (hydroxypropylcellulose) (HPC) 106 % of control | dose: 350.0 mg/kg/injection, schedule: Q01DX001 (ip), vehicle: Klucel (hydroxypropylcellulose) (HPC) 98 % of control

Cc1ccc([I+]c2ccc(C)cc2)cc1
inactive: dose: 8.0 mg/kg/injection, schedule: Q04DX002 (ip), vehicle: saline 101 % of control | dose: 16.0 mg/kg/injection, schedule: Q04DX002 (ip), vehicle: saline 92 % of control | dose: 32.0 mg/kg/injection, schedule: Q04DX002 (ip), vehicle: saline 92 % of control

Cc1ccc(-n2c(O)c(N=Nc3ccccc3C)c(=O)n(-c3ccc(Cl)cc3)c2=S)cc1
inactive: dose: 50.0 mg/kg/injection, schedule: Q01DX001 (ip), vehicle: Klucel (hydroxypropylcellulose) (HPC) 104 % of control | [14] 102 % of control | [15] 102 % of control

NC(=S)c1ccc(Cl)cc1
inactive: [16] 95 % of control | dose: 100.0 mg/kg/injection, schedule: Q04DX002 (ip), vehicle: saline with Tween-80 101 % of control | [17] 110 % of control | dose: 200.0 mg/kg/injection, schedule: Q04DX002 (ip), vehicle: saline with Tween-80 97 % of control | dose: 400.0 mg/kg/injection, schedule: Q04DX002 (ip), vehicle: saline with Tween-80 97 % of control

CCCCCCCCCCCCCCCCSc1ccc(C)cc1
inactive: dose: 100.0 mg/kg/injection, schedule: Q01DX009 (ip), vehicle: other 88 % of control | [9] 89 % of control | dose: 200.0 mg/kg/injection, schedule: Q01DX009 (ip), vehicle: other 88 % of control | [11] 93 % of control | dose: 400.0 mg/kg/injection, schedule: Q01DX009 (ip), vehicle: other 112 % of control | [13] 96 % of control

CCOC(=O)c1ccc2ccccc2c1
inactive: [16] 94 % of control | [17] 97 % of control | dose: 400.0 mg/kg/injection, schedule: Q01DX009 (ip), vehicle: saline with Tween-80 89 % of control

CCCCC(C(C)=O)C(C)=O
inactive: [8] 100 % of control | [18] 86 % of control | [10] 100 % of control | [19] 93 % of control | [12] 89 % of control | [20] 86 % of control

COc1ccc(-n2c(=O)c(N=Nc3ccc(Cl)cc3)c(O)n(-c3ccc(Br)cc3)c2=S)cc1
inactive: [14] 94 % of control | [15] 94 % of control | dose: 400.0 mg/kg/injection, schedule: Q01DX001 (ip), vehicle: Klucel (hydroxypropylcellulose) (HPC) 92 % of control

[NH-]c1ccccc1C(=O)O.[NH-]c1ccccc1C(=O)O.[Ni+2]
inactive: [7] 100 % of control | [17] 105 % of control

CN(C)CCOC(c1ccccc1)c1ccccc1 (tested in a mixture with another compound)
inactive: [1] 109 % of control | [2] 101 % of control | [3] 95 % of control

CC1=CC(C)(C)NC(=S)N1C
inactive: dose: 6.25 mg/kg/injection, schedule: Q04DX003 (ip), vehicle: saline with Tween-80 96 % of control | dose: 12.5 mg/kg/injection, schedule: Q04DX003 (ip), vehicle: saline with Tween-80 95 % of control | dose: 25.0 mg/kg/injection, schedule: Q04DX003 (ip), vehicle: saline with Tween-80 95 % of control | dose: 166.0 mg/kg/injection, schedule: Q01DX Z (ip), vehicle: methylcellulose (MC) 87 % of control

Nc1nc(CO)c(CCCCc2ccccc2)c(=O)[nH]1
inactive: dose: 50.0 mg/kg/injection, schedule: Q01DX001 (ip), vehicle: saline 101 % of control | [1] 101 % of control | [2] 98 % of control | [3] 101 % of control

O=C(Oc1c(Cl)cc(S(=O)(=O)F)cc1Cl)c1ccccc1Cl
inactive: [18] 92 % of control | [19] 89 % of control | [20] 89 % of control

Cn1c2c(c(=O)n(C)c1=O)C(C(=O)O)CC(=O)N2 (stereo not drawn)
inactive: [8] 103 % of control | [9] 103 % of control | [10] 102 % of control | [11] 102 % of control | [12] 100 % of control | [13] 110 % of control

CCCCCCCCC(CCCCCCCC)CC1CCC2CCCC21 (stereo not drawn)
inactive: dose: 75.0 mg/kg/injection, schedule: Q01DX001 (ip), vehicle: saline with Tween-80 93 % of control | dose: 150.0 mg/kg/injection, schedule: Q01DX001 (ip), vehicle: saline with Tween-80 90 % of control | dose: 300.0 mg/kg/injection, schedule: Q01DX001 (ip), vehicle: saline with Tween-80 90 % of control

O=C(O)/C=C/C(=O)Nc1ccc2c(c1)C(NC(=O)/C=C/C(=O)O)c1ccccc1-2 (stereo not drawn)
inactive: [1] 93 % of control | dose: 100.0 mg/kg/injection, schedule: Q04DX003 (ip), vehicle: saline 100 % of control | [2] 97 % of control | dose: 200.0 mg/kg/injection, schedule: Q04DX003 (ip), vehicle: saline 96 % of control | [3] 88 % of control | dose: 400.0 mg/kg/injection, schedule: Q04DX003 (ip), vehicle: saline 92 % of control

CCCCCCOC(=O)Nc1ccc(S(=O)(=O)CC)cc1
inactive: [4] 100 % of control | [5] 97 % of control | [6] 97 % of control
